Values quoted from earlier work in patent US10821087B2, “Stabilized injectable emulsion of Propofol and Ketamine” (NEON LABORATORIES LIMITED, priority 2015, dated 2020).

Tested on: Propofol induced pain
Conditions: 100 μg/kg Ketamine administered just before Propofol

For `CNC1(c2ccccc2Cl)CCCCC1=O` (centres unmarked) [Ketamine], the adverse hemodynamic effects is listed as “without significant adverse hemodynamic effects” and the “incidence and intensity of Propofol induced pain” value is listed as “reduce the incidence and intensity of Propofol induced pain”.
